IC50 data for 1 compound are collected here from patent publication US20130096100A1, “DI(ARYLAMINO)ARYL COMPOUND” (ASTELLAS PHARMA INC., priority 2007, published 2013).

In experiment [1] the target is T1, EML4-ALK fusion protein v1 (Homo sapiens, UniProt Q9UM73, D1529E/I1461V/K1491R).
T1 construct: FLAG (N); made in house
The experiment is described as follows: Inhibitory activity against the kinase activity of EML4-ALK fusion protein v1 (Test Example 1). The format is biochemical. To be noted: ATP 100 μM, reaction 1 hour, HTRF KinEASE-TK. The protocol:
EML4-ALK fusion protein v1 (purified from BA/F3 cells expressing EML4-ALK fusion protein v1) was investigated for its phosphorylation activity toward a peptide substrate by using a kinase activity detection kit (HTRF KinEASE-TK; Cisbio Inc.). […] The ATP concentration used was 100 μM. Another reaction solution was prepared to contain the enzyme protein but no test compound (in which the solvent DMSO alone was added at 0.4% in place of the test compound), followed by reaction in the same manner with or without ATP addition. […] The concentration causing 50% inhibition (IC50) was calculated for each test compound by the logistic regression method.
N-terminally FLAG-tagged EML4-ALK fusion protein v1 was inserted into a vector pMX-iresCD8 capable of co-expression of insert cDNA and cell surface antigen CD8 (J. Biol. Chem., 2001, vol. 276, p. 39012-39020) to create a vector FLAG-EML4-ALKv1/pMX-iresCD8 expressing both FLAG-EML4-ALKv1 and CD8. FLAG-EML4-ALKv1/pMX-iresCD8 was used to create a recombinant retrovirus in the same manner as described above and infected into mouse lymphoid cell line BA/F3 cells. Using a magnetic bead reagent for cell separation and a purification column (anti-CD8 monoclonal antibody immobilized on magnetic beads and a MiniMACS purification column; both are products of Miltenyi Biotec Inc.), cell surface CD8-expressing cells were purified conveniently. […] After washing 3 times with PBS, the cells were lysed in a lysis solution (50 mM Tris.HCl (pH 7.4), 150 mM NaCl, 1% Triton X100, 5 mM EDTA, 5 mM EGTA, 1 mM NaVO4, 1 mM DTT and protease inhibitor cocktail complete). The EML4-ALK fusion protein v1 present in the supernatant obtained after centrifugation was purified using ANTI-FLAG M2 Affinity Gel (SIGMA-ALDRICH Inc.) according to the method described in the product information document.
The EML4-ALK fusion protein v1 purified as above was investigated for its phosphorylation activity toward a peptide substrate using a kinase activity detection kit (HTRF KinEASE-TK; Cisbio Inc.). Using TK substrate 1, which was included in the kit, as the substrate, and after adding no ATP or 100 μM ATP, the mixtures were reacted at room temperature for 1 hour, and the count of HTRF was detected as recommended by the Kits manufacturer.
A general note: Time-resolved FRET reads energy transfer from a long-lived donor to a nearby acceptor.

Experiment [2] has as its target T1, EML4-ALK fusion protein v1. The experiment is described as follows: Inhibitory effect of compounds against the in vitro kinase activity of EML4-ALK fusion protein v1, IC50 (Test Example 14). To be noted: 8 concentrations 1000 nM to 0.3 nM. The format is biochemical. The protocol:
In the same manner as shown in Test Example 12(3), compounds were investigated for their inhibitory effect against the in vitro kinase activity of EML4-ALK fusion protein v1 using the kinase activity detection kit mentioned above. Test compounds were each added to a reaction solution containing the EML4-ALK fusion protein v1 to give 8 final concentrations from 1000 nM to 0.3 nM, followed by addition of ATP. Another reaction solution was prepared to contain the EML4-ALK fusion protein v1 but no test compound (in which the solvent DMSO alone was added at 0.4% in place of the test compound), followed by reaction with or without ATP addition. The rest of the operations were carried out as described in Test Example 12(2). […] The concentration causing 50% inhibition (IC50) was calculated for each test compound by the logistic regression method.

The test system of experiment [3] is human non-small cell lung cancer cell line HCC827 cells (mutant EGFR protein-expressing cells). The experiment is described as follows: Inhibitory effect against anchorage-independent cell growth of HCC827 cells (Test Example 4). The format is cell-based. To be noted: 120 h, spheroid plate, 5 days, CellTiter-Glo. On the procedure: (§1) In a 96-well spheroid plate (Sumilon Celltight Spheroid 96U; Sumitomo Bakelite Co., Ltd., Japan), human non-small cell lung cancer cell line NCI-H2228 cells were seeded at 2000 cells per well in RPMI1640 medium (Invitrogen) containing 10% fetal bovine serum. NCI-H2228 cells are those expressing another EML4-ALK fusion protein, which is different from the EML4-ALK fusion protein v1 because it is encoded by an EML4-ALK fusion polynucleotide whose fusion point on EML4 cDNA is different from that of the EML4-ALK fusion polynucleotide v1, but whose ALK region is the same as that of the EML4-ALK fusion polynucleotide v1. The above NCI-H2228 cells seeded in the plate were cultured overnight under 5% CO2 at 37° C., followed by addition of a test compound (final concentration: 10 μM to 1 nM). As a negative control, DMSO used as a solvent was added at the same concentration as the test compound. Then, the cells were cultured under 5% CO2 at 37° C. for 5 days. A cell counting reagent (CellTiter-Glo™ Luminescent Cell Viability Assay; Promega) was added and agitated for 20 minutes, followed by measurement with a luminometer (ML3000 microtiter plate luminometer; Dynatech Laboratories).
Evaluation of Inhibitory Effect Against Anchorage-Independent Cell Growth of Human Non-Small Cell Lung Cancer Cell Line HCC827 Cells (Mutant EGFR (with Partial Deletion of Exon 19 in EGFR) Protein-Expressing Cells, American Type Culture Collection)
Evaluation was performed in the same manner as shown in Test Example 3.
In general terms: ATP-based viability assays read luminescence as a measure of living cells.

Experiment [4] deals with human non-small cell lung cancer cell line NCI-H2228 cells (EML4-ALK fusion protein-expressing cells). The experiment is described as follows: Inhibitory effect against anchorage-independent cell growth of NCI-H2228 cells (Test Example 3). The format is cell-based. The following applies: 120 h, spheroid plate, 5 days, CellTiter-Glo.
Excerpt: Measurement for anchorage-independent cell growth (colony method, etc) has been known to be a system for investigating the anticancer action (pharmacological effect) of test compounds (Clinical Oncology, second edition, Cancer and Chemotherapy Publishers Inc.). In place of the colony method, there is a following method using spheroid plates for measuring the growth of non-attached cells.
as §1

T1 sequence (Q9UM73 with tags, fused parts or gaps I1461V/K1491R/D1529E): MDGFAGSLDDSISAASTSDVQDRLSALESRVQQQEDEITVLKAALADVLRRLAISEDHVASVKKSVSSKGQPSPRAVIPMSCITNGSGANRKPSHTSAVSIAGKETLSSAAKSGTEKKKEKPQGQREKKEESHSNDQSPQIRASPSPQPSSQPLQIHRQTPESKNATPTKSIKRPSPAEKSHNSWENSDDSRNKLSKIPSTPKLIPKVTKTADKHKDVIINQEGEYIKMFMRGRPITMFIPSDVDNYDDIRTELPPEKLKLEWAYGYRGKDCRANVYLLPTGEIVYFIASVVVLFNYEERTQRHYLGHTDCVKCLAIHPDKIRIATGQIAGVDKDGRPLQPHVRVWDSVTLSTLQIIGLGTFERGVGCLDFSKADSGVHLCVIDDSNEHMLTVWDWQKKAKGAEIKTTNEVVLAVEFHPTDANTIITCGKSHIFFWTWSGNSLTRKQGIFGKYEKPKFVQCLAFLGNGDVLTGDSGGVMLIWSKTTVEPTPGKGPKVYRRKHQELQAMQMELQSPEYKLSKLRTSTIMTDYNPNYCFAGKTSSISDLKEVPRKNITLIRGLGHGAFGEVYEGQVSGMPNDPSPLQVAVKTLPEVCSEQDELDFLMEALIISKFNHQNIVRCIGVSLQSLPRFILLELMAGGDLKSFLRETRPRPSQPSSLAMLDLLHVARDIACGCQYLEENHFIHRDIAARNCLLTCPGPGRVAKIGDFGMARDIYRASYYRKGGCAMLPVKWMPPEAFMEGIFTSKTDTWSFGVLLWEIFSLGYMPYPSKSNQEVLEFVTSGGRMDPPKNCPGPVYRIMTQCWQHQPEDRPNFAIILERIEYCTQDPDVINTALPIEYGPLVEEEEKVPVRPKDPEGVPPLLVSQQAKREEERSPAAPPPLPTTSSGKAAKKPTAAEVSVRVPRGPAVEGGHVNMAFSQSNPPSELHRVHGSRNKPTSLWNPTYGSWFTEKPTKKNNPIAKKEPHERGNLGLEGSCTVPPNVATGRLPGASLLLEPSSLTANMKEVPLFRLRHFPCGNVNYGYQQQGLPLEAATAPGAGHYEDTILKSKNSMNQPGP

By IC50 is commonly meant the concentration that gives 50% inhibition. Higher therefore signals weaker potency. `COc1cc(N2CCC(N3CCN(C)CC3)CC2)ccc1Nc1nc(Nc2ccccc2S(=O)(=O)C(C)C)c2ccccc2n1` [Example 1, N^4-[2-(isopropylsulfonyl)phenyl]-N^2-{2-methoxy-4-[4-(4-methylpiperazin-1-yl)piperidin-1-yl]phenyl}quinazoline-2,4-diamine]: the IC50 in experiment [1] was 42 nM; in experiment [2] it was 42 nM; in experiment [3], 2510 nM; in experiment [4] it was 473 nM.
